Results on 15 compounds are retold here after PubChem BioAssay (NCI).

Test systems include 786-0 renal; HOP-62 NSCLC; HOP-92 NSCLC; LOX IMVI melanoma; RXF 393 renal; SF-539 CNS; SK-MEL-28 melanoma; SK-MEL-5 melanoma; HL-60(TB) leukemia.
Test in all cases: NCI tumour cell line growth inhibition, 48 h

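Values below derive from 48-hour exposures of cells grown in 96-well plates, with endpoints linearly interpolated between the two concentrations bracketing the appropriate inhibition level. GI50: concentration for 50% inhibition of growth. TGI: concentration producing complete growth inhibition.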 Bounds are passed on as bounds.

As for `CCCN(CCCCC(NC(C)=O)C(=O)NCc1ccccc1)C(=O)N(C)N=O` (stereo not drawn), the TGI with 786-0 renal, in the experiment with HOP-62 NSCLC, with HOP-92 NSCLC, in the experiment with LOX IMVI melanoma, with RXF 393 renal and in the experiment on SF-539 CNS was above 100 µM throughout. Further, the TGI with SK-MEL-28 melanoma and in the experiment with SK-MEL-5 melanoma was above 100 µM throughout.
In the case of `COc1ccc(C(=O)C(c2ccc(OC)cc2)C2(O)C(=O)Nc3ccccc32)cc1` (stereo not drawn), the TGI with 786-0 renal, with HL-60(TB) leukemia, with HOP-92 NSCLC, in the experiment with LOX IMVI melanoma, with SF-539 CNS and in the experiment with SK-MEL-28 melanoma was above 100 µM in each case.
For `O=C(O)C(CP(=O)(O)O)=C(Cl)Cl`, the TGI in the experiment with 786-0 renal, in the experiment on HL-60(TB) leukemia, with HOP-62 NSCLC, in the experiment with HOP-92 NSCLC, with LOX IMVI melanoma and with RXF 393 renal was above 100 µM throughout. In addition, the TGI with SF-539 CNS and in the experiment with SK-MEL-28 melanoma was above 100 µM in each case.
Regarding `COC(=O)C1=C(O)c2cc(OC)c(OC)c(OC)c2[C@H](c2cc(OC)c(OC)c(OC)c2)C1C(=O)OC` (stereo partly drawn), the TGI in the experiment on 786-0 renal is above 100 µM; in the experiment with HL-60(TB) leukemia, 61.6 µM; in the experiment with HOP-62 NSCLC, above 100 µM; in the experiment with HOP-92 NSCLC, 69.3 µM; in the experiment with LOX IMVI melanoma, above 100 µM; in the experiment with RXF 393 renal it was 59.5 µM. Further, the figures for the TGI with SF-539 CNS, in the experiment with SK-MEL-28 melanoma and in the experiment with SK-MEL-5 melanoma were 38.9 µM, above 100 µM and above 100 µM, respectively.
With `Cc1c(Cl)ccc2c1NC(=O)C2(O)C(C(=O)c1ccccc1)c1ccccc1` (stereo not drawn), the TGI is above 100 µM in the experiment on 786-0 renal; 39.5 µM in the experiment with HL-60(TB) leukemia; above 100 µM in the experiment on HOP-62 NSCLC; above 100 µM with LOX IMVI melanoma; 73.8 µM in the experiment on RXF 393 renal; above 100 µM in the experiment on SF-539 CNS. For the same compound, the TGI is above 100 µM with SK-MEL-28 melanoma and 60 µM with SK-MEL-5 melanoma.
With `O=S1c2ccccc2N=C(c2ccc3ccccc3c2)CC1C1=CC=CCC1` (stereo not drawn), the TGI in the experiment with 786-0 renal was found to be 29.8 µM; in the experiment on HL-60(TB) leukemia it was 36.8 µM; in the experiment on HOP-62 NSCLC, 40.4 µM; with LOX IMVI melanoma it was 30.8 µM; in the experiment with RXF 393 renal, 30.4 µM; in the experiment with SF-539 CNS, 45.3 µM. Besides, the TGI in the experiment on SK-MEL-28 melanoma worked out at 33.1 µM; with SK-MEL-5 melanoma, 30.4 µM.
In the case of `COc1ccccc1OCC(=O)Nc1sc2c(c1C(N)=O)CCC2`, the GI50 in the experiment with 786-0 renal, in the experiment with HL-60(TB) leukemia, with HOP-62 NSCLC, in the experiment with HOP-92 NSCLC, in the experiment with LOX IMVI melanoma and in the experiment on SF-539 CNS was above 100 µM throughout. Moreover, the GI50 in the experiment on SK-MEL-28 melanoma was above 100 µM; in the experiment on SK-MEL-5 melanoma, 70.6 µM. For the same compound, the TGI in the experiment with 786-0 renal, in the experiment with HL-60(TB) leukemia, in the experiment with HOP-62 NSCLC, in the experiment with HOP-92 NSCLC, in the experiment with LOX IMVI melanoma and in the experiment on SF-539 CNS was above 100 µM in each case. The TGI in the experiment on SK-MEL-28 melanoma and with SK-MEL-5 melanoma was above 100 µM each time.
`COC(=O)/C=C1/CCC2[C@@H](C(=O)CC3[C@]2(C)CCC[C@@]3(C)C(=O)OC)C1C` (stereo partly drawn): the TGI in the experiment on 786-0 renal worked out at 36 µM; in the experiment with HL-60(TB) leukemia it was 7.81 µM; in the experiment with HOP-62 NSCLC it was 39.5 µM; in the experiment on HOP-92 NSCLC, 18.1 µM; with SF-539 CNS, 28.5 µM; in the experiment with SK-MEL-28 melanoma it was 26.8 µM. Further, the TGI in the experiment with SK-MEL-5 melanoma amounted to 20.8 µM.
With `CN(C)CCNC(=O)c1cc2ccccc2c2nc3ccccc3nc12`, the TGI with 786-0 renal was above 38.2 µM; with HOP-62 NSCLC, 5 µM; in the experiment with LOX IMVI melanoma, 1.88 µM; with RXF 393 renal, 2.33 µM; in the experiment with SF-539 CNS, 1.55 µM; in the experiment on SK-MEL-28 melanoma, 2.96 µM. In addition, the TGI in the experiment on SK-MEL-5 melanoma stood at 5.5 µM.
`COc1cc(/C=C2\[C@H]3c4c(c(OC)c(C)c(OC)c4OC)C[C@@H](C(=O)N2Cc2ccccc2)N3C(=O)OCC(C)C)c(OC)c(C)c1OC`: the TGI in the experiment on 786-0 renal, with HL-60(TB) leukemia, in the experiment with HOP-62 NSCLC, in the experiment on HOP-92 NSCLC, in the experiment with LOX IMVI melanoma and in the experiment with RXF 393 renal was above 100 µM each time. Moreover, the TGI with SF-539 CNS, with SK-MEL-28 melanoma and in the experiment on SK-MEL-5 melanoma was above 100 µM in each case.
Take `CCOC(C)C(/C=N/NC(N)=S)=NNC(N)=S` (stereo not drawn): the TGI with 786-0 renal, in the experiment with HL-60(TB) leukemia, in the experiment on HOP-62 NSCLC, in the experiment on HOP-92 NSCLC, in the experiment with LOX IMVI melanoma and in the experiment on SF-539 CNS was above 100 µM in each case. The TGI in the experiment with SK-MEL-28 melanoma and in the experiment on SK-MEL-5 melanoma was above 100 µM throughout.
With `COc1cc(/C=C2/C(=O)N(C(=O)OC(C)C)C(Cc3cc(OC)c(OC)c(C)c3OC)C(=O)N2Cc2ccccc2)c(OC)c(C)c1OC` (stereo not drawn), the TGI in the experiment with 786-0 renal, in the experiment on HL-60(TB) leukemia, with HOP-62 NSCLC, in the experiment with HOP-92 NSCLC, with LOX IMVI melanoma and in the experiment with RXF 393 renal was above 100 µM each time. The TGI with SF-539 CNS, in the experiment with SK-MEL-28 melanoma and with SK-MEL-5 melanoma was above 100 µM throughout.
Regarding `CC(=O)OC(/C=C1/C=CC(=O)O1)COC(=O)c1ccccc1` (stereo not drawn), the TGI in the experiment with 786-0 renal, with HL-60(TB) leukemia, in the experiment with HOP-62 NSCLC, in the experiment on HOP-92 NSCLC, in the experiment with LOX IMVI melanoma and with RXF 393 renal was above 31.2 µM throughout. Moreover, the TGI in the experiment on SF-539 CNS, in the experiment on SK-MEL-28 melanoma and with SK-MEL-5 melanoma was above 31.2 µM in each case.
As to `Cc1ccc(NC(=O)C(=O)C2C(=O)N(c3ccccc3)N=C2N)cc1C` (stereo not drawn), the TGI with 786-0 renal, in the experiment with HL-60(TB) leukemia, in the experiment on HOP-62 NSCLC, in the experiment on HOP-92 NSCLC, with SF-539 CNS and with SK-MEL-28 melanoma was above 100 µM each time. This compound also had a TGI in the experiment with SK-MEL-5 melanoma above 100 µM.
In the case of `CCOC(=O)/C(O)=C(/c1n[nH]c(=O)c2ccccc12)[N+](=O)[O-]`, the TGI in the experiment on 786-0 renal, with HL-60(TB) leukemia, with HOP-62 NSCLC, with HOP-92 NSCLC, with LOX IMVI melanoma and with RXF 393 renal was above 100 µM throughout. For the same compound, the TGI in the experiment on SF-539 CNS, with SK-MEL-28 melanoma and in the experiment with SK-MEL-5 melanoma was above 100 µM in each case.
